Read-outs that look alike come from different tables or passages of the source.
What was measured:
[1] = biological target: T1, human recombinant JAK2 protein (Homo sapiens, UniProt O60674); experiment: JAK2 Inhibition Assay (HTRF kinase assay); type: biochemical; settings: human recombinant JAK2, 2.5 μM ATP substrate solution
T1 construct: purchased Carna Biosciences 08-045
In short: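 Recombinant human JAK2 was preincubated 15 min at room temperature with compound in buffer containing 5 mM MgCl2, 1 mM DTT and 0.01% Brij35. Substrate solution (2.5 μM ATP, 0.25 μM biotinylated TK substrate) was then added for 30 min. Phosphorylation was detected by HTRF (665/620 nm ratio; no-enzyme = 100% inhibition), and IC50 was fitted from an 8-point, 4-fold series.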

[2] = tested on: IL-12-induced IFN-γ secretion in NK92 cells; experiment: Inhibition of IL-12-induced IFN-γ Secretion in NK92 Cells (ELISA); type: cell-based, human; settings: 24 hours incubation, 8 concentration points, read-out: IC50 (NK92_IL12/IFNγ)
In short: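 NK92 cells (100,000/well, IL-2-free medium) rested overnight, then treated with compound plus IL-12 for 24 h at 37 °C. Secreted IFN-γ measured in supernatant by ELISA. Inhibition normalized to unstimulated and IL-12/0.2% DMSO controls; IC50 fitted from 8 concentrations.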

[3] = biological target: T2, human recombinant TYK2 protein (Homo sapiens, UniProt P29597); experiment: TYK2 Inhibition Assay (HTRF kinase assay); type: biochemical; settings: human recombinant TYK2, 11.25 μM ATP substrate solution
T2 construct: purchased Carna Biosciences 08-147
T2 sequence (P29597 871-1187 limits assumed): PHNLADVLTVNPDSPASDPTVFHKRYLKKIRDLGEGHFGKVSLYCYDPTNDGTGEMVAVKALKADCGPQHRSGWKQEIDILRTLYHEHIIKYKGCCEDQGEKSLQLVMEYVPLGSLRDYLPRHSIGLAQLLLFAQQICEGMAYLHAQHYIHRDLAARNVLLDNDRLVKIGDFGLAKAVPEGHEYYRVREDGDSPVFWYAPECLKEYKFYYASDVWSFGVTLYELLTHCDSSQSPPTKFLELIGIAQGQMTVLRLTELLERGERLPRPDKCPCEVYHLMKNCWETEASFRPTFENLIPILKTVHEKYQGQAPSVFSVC
In short: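 Recombinant human TYK2 was pre-incubated 15 min at room temperature with compound, then reacted for 40 min with biotinylated tyrosine-kinase substrate and ATP (substrate solution 11.25 μM ATP, 0.5 μM substrate; 5 mM MgCl2, 0.01% Brij35). Phosphorylation was read by HTRF 665/620 ratio, normalised to no-enzyme and no-compound controls, and IC50 was fitted from 8 4-fold dilutions.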

T1 sequence (O60674 826-1132 limits assumed): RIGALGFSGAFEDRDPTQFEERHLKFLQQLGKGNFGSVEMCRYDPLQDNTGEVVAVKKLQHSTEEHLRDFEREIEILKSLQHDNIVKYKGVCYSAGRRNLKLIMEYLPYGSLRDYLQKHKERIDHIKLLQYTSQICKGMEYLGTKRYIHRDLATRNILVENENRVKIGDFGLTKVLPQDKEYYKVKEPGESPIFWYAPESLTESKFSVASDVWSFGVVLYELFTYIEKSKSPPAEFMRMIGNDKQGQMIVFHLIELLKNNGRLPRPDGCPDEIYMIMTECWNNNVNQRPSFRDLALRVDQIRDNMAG

| Compound | IC50 [1] [nM] | IC50 ([2]; Homo sapiens) [µM] | IC50 [3] [nM] | IC50 [2] [µM] |
| --- | --- | --- | --- | --- |
| Cc1cc(CN2C[C@@]3(C)CN(c4nc(Nc5cnn(C)c5)ncc4Cl)C[C@@]3(C)C2)on1 [Compound 78, 5-chloro-4-((3aR,6aS)-3a,6a-dimethyl-5-((3-methylisoxazol-5-yl)methyl)hexahydropyrrolo[3,4-c]pyrrol-2(1H)-yl)-N-(1-methyl-1H-pyrazol-4-yl)pyrimidin-2-amine] | 7.6 | 2.76 | 4.2 | – |
| Cn1cc(Nc2ncc(Cl)c(N3C[C@]4(C)CN(Cc5cn[nH]c5)C[C@]4(C)C3)n2)cn1 [Compound 79, 4-((3aR,6aS)-5-((1H-pyrazol-4-yl)methyl)-3a,6a-dimethylhexahydropyrrolo[3,4-c]pyrrol-2(1H)-yl)-5-chloro-N-(1-methyl-1H-pyrazol-4-yl)pyrimidin-2-amine] | 40 | 3.97 | 51 | – |
| Cc1ncc(CN2C[C@@]3(C)CN(c4nc(Nc5cnn(C)c5)ncc4Cl)C[C@@]3(C)C2)o1 [Compound 80, 5-chloro-4-((3aR,6aS)-3a,6a-dimethyl-5-((2-methyloxazol-5-yl)methyl)hexahydropyrrolo[3,4-c]pyrrol-2(1H)-yl)-N-(1-methyl-1H-pyrazol-4-yl)pyrimidin-2-amine] | 16 | 4.09 | 19 | – |
| Cn1cc(Nc2ncc(Cl)c(N3C[C@]4(C)CN(Cc5cc[nH]n5)C[C@]4(C)C3)n2)cn1 [Compound 81, 4-((3aR,6aS)-5-((1H-pyrazol-3-yl)methyl)-3a,6a-dimethylhexahydropyrrolo[3,4-c]pyrrol-2(1H)-yl)-5-chloro-N-(1-methyl-1H-pyrazol-4-yl)pyrimidin-2-amine] | 16 | 3.97 | 50 | – |
| Cc1noc(CN2C[C@@]3(C)CN(c4nc(Nc5cnn(C)c5)ncc4Cl)C[C@@]3(C)C2)n1 [Compound 82, 5-chloro-4-((3aR,6aS)-3a,6a-dimethyl-5-((3-methyl-1,2,4-oxadiazol-5-yl)methyl)hexahydropyrrolo[3,4-c]pyrrol-2(1H)-yl)-N-(1-methyl-1H-pyrazol-4-yl)pyrimidin-2-amine] | 14 | 2.87 | 16 | – |
| Cc1nnc(N2C[C@@]3(C)CN(c4nc(Nc5cnn(C)c5)ncc4Cl)C[C@@]3(C)C2)o1 [Compound 83, 5-chloro-4-((3aR,6aS)-3a,6a-dimethyl-5-(5-methyl-1,3,4-oxadiazol-2-yl)hexahydropyrrolo[3,4-c]pyrrol-2(1H)-yl)-N-(1-methyl-1H-pyrazol-4-yl)pyrimidin-2-amine] | 13 | 4.55 | 7.4 | – |
| Cn1cc(Nc2ncc(Cl)c(N3C[C@]4(C)CN(CC5CC5)C[C@]4(C)C3)n2)cn1 [Compound 84, 5-chloro-4-((3aR,6aS)-5-(cyyclopropylmethyl)-3a,6a-dimethylhexahydropyrrolo[3,4-c]pyrrol-2(1H)-yl)-N-(1-methyl-1H-pyrazol-4-yl)pyrimidin-2-amine] | 477 | 8.75 | 186 | – |
| Cn1cc(Nc2ncc(Cl)c(N3C[C@H]4CN(C(=O)C5CC5)C[C@@]4(C)C3)n2)cn1 [Compound 87, ((3aR,6aS)-5-(5-chloro-2-((1-methyl-1H-pyrazol-4-yl)amino)pyrimidin-4-yl)-3a-methylhexahydropyrrolo[3,4-c]pyrrol-2(1H)-yl)(cyclopropyl)methanone] | 9 | 0.959 | 6 | – |
| C[C@@]12CN(C(=O)C3CC3)C[C@]1(C)CN(c1nc(Nc3cc[nH]n3)ncc1Cl)C2 [Compound 95, ((3aR,6aS)-5-(2-((1H-pyrazol-3-yl)amino)-5-chloropyrimidin-4-yl)-3a,6a-dimethylhexahydropyrrolo-[3,4-c]pyrrol-2(1H)-yl)(cyclopropyl)methanone] | 19 | 5.85 | 42 | – |
| cyclopropyl((3aR,6aS)-3a,6a-dimethyl-5-(5-methyl-2((1-methyl-1H-pyrazol-4-yl)amino)pyriraidin-4-yl)hexahydropyrrolo[3,4-c]pyrrol-2(1H)-yl)methanone [Compound 24] | 20 | – | 4.1 | 1.07 |

Stronger by IC50 [1], values ahead:

| IC50 [1] [nM] | IC50 ([2]; Homo sapiens) [µM] | IC50 [3] [nM] | IC50 [2] [µM] | Compound |
| --- | --- | --- | --- | --- |
| 5.9 | 1.38 | 2.2 | – | Cc1cnc(Nc2cnn(C)c2)nc1N1C[C@]2(C)CN(C(=O)CC(F)(F)F)C[C@]2(C)C1 [Compound 60, 1-((3aR.,6aS)-3a,6a-dimethyl-5-(5-methyl-2-((1-methyl-1H-pyrazol-4-yl)amino)pyrimidin-4-yl)hexahydropyrrolo[3,4-c]pyrrol-2(1H)-yl)-3,3,3-trifluoropropan-1-one] |
| 0.3 | 0.066 | 0.2 | – | Cn1cc(Nc2ncc(Cl)c(N3C[C@]4(C)CN(c5ccno5)C[C@]4(C)C3)n2)cn1 [Compound 66] |
| 1.7 | 5.35 | 2.4 | – | Cn1cc(Nc2ncc(Cl)c(N3C[C@]4(C)CN(CC#N)C[C@]4(C)C3)n2)cn1 [Compound 85, 2-((3aR,6aS)-5-(5-chloro-2-((1-methyl-1H-pyrazol-4-yl)amino)pyrimidin-4-yl)-3a,6a-dimethylhexahydropyrrolo[3,4-c]pyrrol-2(1H)-yl)acetonitrile] |
| 1.7 | 0.099 | 0.3 | – | Cn1cc(Nc2ncc(Cl)c(N3C[C@@H]4CN(C(=O)C5CC5)C[C@]4(C)C3)n2)cn1 [Compound 86, ((3aS,6aR)-5-(5-chloro-2-((1-methyl-1H-pyrazol-4-yl)amino)pyrimidin-4-yl)-3a-methylhexahydropyrrolo[3,4-c]pyrrol-2(1H)-yl)(cyclopropyl)methanone] |
| 0.5 | 0.067 | 0.2 | – | Cn1cc(Nc2ncc(Cl)c(N3C[C@@H]4CN(C(=O)CC#N)C[C@]4(C)C3)n2)cn1 [Compound 88, 3-((3aS,6aR)-5-(5-chloro-2-((1-methyl-1H-pyrazol-4-yl)amino)pyrimidin-4-yl)-3a-methylhexahydropyrrolo[3,4-c]pyrrol-2(1H)-yl)-3-oxopropanenitrile] |
| 4.5 | 0.729 | 2.6 | – | Cn1cc(Nc2ncc(Cl)c(N3C[C@H]4CN(C(=O)CC#N)C[C@@]4(C)C3)n2)cn1 [Compound 89, 3-((3aR,6aS)-5-(5-chloro-2-((1-methyl-1H-pyrazol-4-yl)amino)pyrimidin-4-yl)-3a-methylhexahydropyrrolo[3,4-c]pyrrol-2(1H)-yl)-3-oxopropanenitrile] |
| 0.6 | 0.096 | 0.1 | – | Cn1cc(Nc2ncc(Cl)c(N3C[C@@H]4CN(C(=O)[C@@H]5CC5(F)F)C[C@]4(C)C3)n2)cn1 [Compound 90] |
| 2.6 | 0.388 | 3.2 | – | Cn1cc(Nc2ncc(Cl)c(N3C[C@H]4CN(C(=O)[C@@H]5CC5(F)F)C[C@@]4(C)C3)n2)cn1 [Compound 91, ((3aR,6aS)-5-(5-chloro-2-((1-methyl-1H-pyrazol-4-yl)amino)pyrimidin-4-yl)-3a-methylhexahydropyrrolo[3,4-c]pyrrol-2(1H)-yl)((S)-2,2-difluorocyclopropyl)methanone] |
| 0.7 | 0.516 | 0.1 | – | C[C@]12CN(C(=O)CC#N)C[C@H]1CN(c1nc(Nc3cn[nH]c3)ncc1Cl)C2 [Compound 98, 3-((3aS,6aR)-5-(2-((1H-pyrazol-4-yl)amino)-5-chloropyrimidin-4-yl)-3a-methylhexahydropyrrolo[3,4-c]pyrrol-2(1H)-yl)-3-oxopropanenitrile] |
| 0.5 | 0.158 | 0.1 | – | [2H]C([2H])([2H])n1cc(Nc2ncc(Cl)c(N3C[C@@H]4CN(C(=O)CC#N)C[C@]4(C)C3)n2)cn1 [Compound 99, 3-((3aS,6aR)-5-(5-chloro-2-((1-(methyl-d3)-1H-pyrazol-4-yl)amino)pyrimidin-4-yl)-3a-methylhexahydropyrrolo[3,4-c]pyrrol-2(1H)-yl)-3-oxopropanenitrile] |
